Earlier results, collected in PMC3057427 (ACS combinatorial science, 2011).

SMILES | efficacy in anti-Parkinsonian animal models
COc1cc(NC(=O)c2ccccn2)ccc1Cl [Compound 6] | display efficacy
O=C(Nc1cc(Cl)cc(Cl)c1)[C@H]1CCCC[C@H]1C(=O)O [Compound 2] | display efficacy
